Where two headings read alike, the source gives them in different places.
Target: human α7 nAChR (Homo sapiens, UniProt P36544)
Experiment: Automated patch-clamp electrophysiology functional assay (Assay A)
Format: cell-based
Conditions: IonFlux HT whole-cell population patch, HEK cell line stably expressing human RIC-3 and human α7, 40 μM acetylcholine
Description: The α7 nAChR positive allosteric modulator (PAM) activity of the present compounds may be tested using assays known in the art. […] The assay was performed using the IonFlux HT in a whole-cell, population patch configuration. See Golden et al. Assay Drug Dev. Technol. (2011) 9:608-619. The compounds were assessed for their ability to modulate the function of the human α7 nAChR stably expressed in a HEK cell line both in the presence, and in the absence of the natural α7 agonist acetylcholine. By performing a series of such measurements at different concentrations, the effective concentration of the α7 nAChR PAMs (EC50) was determined. See Spencer et al. Assay Drug Dev. Technol. (2012) 10:313-324.
Direct activation of α7 (agonism), and potentiation of acetylcholine-evoked α7 currents was determined as follows:
Automated Patch-Clamp Electrophysiology Functional Assay (Assay A)
Automated patch-clamp electrophysiology was performed using the IonFlux HT (Fluxion Biosciences Inc., San Francisco, Calif.) in the whole-cell, population patch configuration. Test compounds were assessed for their ability to modulate the function of the α7 nicotinic acetylcholine receptor both in the presence, and in the absence of the natural α7 agonist acetylcholine. A HEK cell line stably expressing both human RIC-3 and human α7 (PrecisION hnAChR α7/RIC-3, Eurofins Pharma, St. Charles, Mo.) was cultured in 175 cm^2 triple-layer tissue culture flasks to no more than 90% confluency in DMEM/F-12 growth media supplemented with 10% heat-inactivated fetal bovine serum, 1% non-essential amino acids, 0.625 μg/mL Puromycin, and 400 μg/mL Geneticin. Immediately prior to assay, cells were detached by first aspirating growth media, rinsing with Dulbecco's phosphate buffered saline, and then adding 10 mL of Accutase (Innovative Cell Technologies, San Diego, Calif.) to the flask and then incubating at 37° C. for 5 minutes. Detached cells were then recovered by the addition of 40 mL of CHO-serum-free media supplemented with 25 mM HEPES, and rocked gently in a 50 mL conical tube for 20 minutes prior to patch-clamp assay. […] The cell suspension was added to the cell inlet wells on an IonFlux HT population patch plate which had previously been rinsed and primed with deionized H2O. Test compounds were serially diluted in DMSO and then resuspended to the final test concentration in external recording solution, with, or without 40 μM acetylcholine added to the external recording solution; test compounds were then transferred to the lonFlux HT population patch plate. Internal recording solution (110 mM TrisPO4, 28 mM TrisBase, 0.1 mM CaCl2, 2 mM MgCl2, 11 mM EGTA, 4 mM MgATP) was added to the internal recording solution inlet wells on the IonFlux HT patch plate previously loaded with cells and test compounds, and the plate loaded into the IonFlux HT instrument. A protocol was executed on the IonFlux HT to trap the cells, break into the cells, and establish the whole-cell recording configuration; cells were voltage-clamped at a holding potential of −60 mV for the duration of the experiment, all experiments were conducted at room temperature, and the IonFlux HT injection pressure was 8 psi for solution applications. Upon establishing the whole-cell configuration, external recording solution was perfused into the recording chambers for 120 seconds and then 40 μM acetylcholine was applied for 1 second and immediately washed off with external recording solution for 60 seconds. The 40 μM acetylcholine-evoked α7 current served as the current response to which subsequent test compound effects, in the presence, or in the absence of 40 μM acetylcholine would be quantified relative to. Next, test compounds were evaluated at multiple concentrations for their ability to induce, or modulate α7 current responses; three concentrations of test compound were evaluated in ascending dose fashion per recording.

Sequence of human α7 nAChR (P36544 23-502): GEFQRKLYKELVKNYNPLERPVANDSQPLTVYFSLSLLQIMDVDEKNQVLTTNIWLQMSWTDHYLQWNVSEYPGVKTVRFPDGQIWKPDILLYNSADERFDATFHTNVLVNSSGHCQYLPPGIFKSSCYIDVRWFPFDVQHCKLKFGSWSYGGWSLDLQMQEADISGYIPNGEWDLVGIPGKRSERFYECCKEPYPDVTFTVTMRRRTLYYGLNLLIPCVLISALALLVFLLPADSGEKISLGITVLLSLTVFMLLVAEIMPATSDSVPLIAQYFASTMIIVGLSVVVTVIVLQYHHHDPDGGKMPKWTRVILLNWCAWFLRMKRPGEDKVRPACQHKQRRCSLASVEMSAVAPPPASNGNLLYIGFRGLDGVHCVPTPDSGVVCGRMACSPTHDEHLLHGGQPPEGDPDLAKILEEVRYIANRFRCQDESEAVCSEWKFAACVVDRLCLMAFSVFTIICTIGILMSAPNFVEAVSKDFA

EC50 (read-out: α7 nAChR EC50)	EC50 (read-out: α7 nAChR Potency)	SMILES
3000 nM	500 to 5000 nM	NS(=O)(=O)c1ccc([C@@H]2C[C@H]2c2nc(C3CCCC3)no2)nc1 (racemic) [Example G7, 6-[trans-2-(3-Cyclopentyl-1,2,4-oxadiazol-5-yl)cyclopropyl]pyridine-3-sulfonamide]
480 nM	100 to 500 nM	CC1(C)[C@@H](c2ccc(S(N)(=O)=O)nc2)[C@@H]1c1nnc(-c2ccc(F)cc2F)s1 (relative stereo) [Example 2, 5-{trans-3-[5-(2,4-Difluorophenyl)-1,3,4-thiadiazol-2-yl]-2,2-dimethylcyclopropyl}pyridine-2-sulfonamide]
3400 nM	500 to 5000 nM	Cc1nc(S(N)(=O)=O)ccc1[C@@H]1C[C@H]1c1nc(-c2ccccc2)no1 (relative stereo) [Example 5, 6-Methyl-5-[trans-2-(3-phenyl-1,2,4-oxadiazol-5-yl)cyclopropyl]pyridine-2-sulfonamide]
990 nM	500 to 5000 nM	CC1(C)[C@@H](c2ccc(S(N)(=O)=O)nc2)[C@@H]1c1noc(-c2ccccc2)n1 (relative stereo) [Example 11, 5-[trans-2,2-Dimethyl-3-(5-phenyl-1,2,4-oxadiazol-3-yl)cyclopropyl]pyridine-2-sulfonamide]
1100 nM	500 to 5000 nM	CC1(C)[C@@H](c2ccc(S(N)(=O)=O)nc2)[C@@H]1c1cc(C2CCCC2)no1 (relative stereo) [Example 12, 5-[trans-3-(3-Cyclopentylisoxazol-5-yl)-2,2-dimethylcyclopropyl]pyridine-2-sulfonamide]
450 nM	100 to 500 nM	CC1(C)C(c2ccc(S(N)(=O)=O)nc2)C1c1nc2ccccc2o1 (single isomer, unassigned) [Example 1, 5-[trans-3-(1,3-Benzoxazol-2-yl)-2,2-dimethylcyclopropyl]pyridine-2-sulfonamide]
400 nM	100 to 500 nM	NS(=O)(=O)c1ccc(C2CC2c2nc(-c3ccccc3)no2)cn1 (single isomer, unassigned) [Example 4, 5-[trans-2-(3-Phenyl-1,2,4-oxadiazol-5-yl)cyclopropyl]pyridine-2-sulfonamide]
770 nM	500 to 5000 nM	CC1(C)C(c2ccc(S(N)(=O)=O)nc2)C1c1cc(-c2cccc(F)c2)on1 (single isomer, unassigned) [Example 13, 5-{trans-3-[5-(3-Fluorophenyl)isoxazol-3-yl]-2,2-dimethylcyclopropyl}pyridine-2-sulfonamide]
1100 nM	500 to 5000 nM	CC1(C)C(c2ccc(S(N)(=O)=O)nc2)C1c1cc(-c2cccc(F)c2)on1 (single isomer, unassigned) [Example C13, 5-{trans-3-[5-(3-Fluorophenyl)isoxazol-3-yl]-2,2-dimethylcyclopropyl}pyridine-2-sulfonamide]
380 nM	100 to 500 nM	CC1(C)[C@@H](c2ccc(S(N)(=O)=O)nc2)[C@@H]1c1nc(-c2ccccc2)no1 [Example 3, 5-[(1S,3S)-2,2-Dimethyl-3-(3-phenyl-1,2,4-oxadiazol-5-yl)cyclopropyl]pyridine-2-sulfonamide]
590 nM	500 to 5000 nM	CC1(C)[C@@H](c2nc(-c3ccccc3)no2)[C@@H]1c1ncc(S(N)(=O)=O)s1 [Example 6, 2-[(1S,3S)-2,2-dimethyl-3-(3-phenyl-1,2,4-oxadiazol-5-yl)cyclopropyl]-1,3-thiazole-5-sulfonamide]
640 nM	500 to 5000 nM	CC1(C)[C@H](c2ccc(S(N)(=O)=O)nc2)[C@H]1c1nc(C2CCCCC2)no1 [Example 7, 5-[(1R,3R)-3-(3-Cyclohexyl-1,2,4-oxadiazol-5-yl)-2,2-dimethylcyclopropyl]pyridine-2-sulfonamide]
1500 nM	500 to 5000 nM	CC1(C)[C@@H](c2ccc(S(N)(=O)=O)nc2)[C@@H]1c1ncc(-c2ccccc2)o1 [Example 8, 5-[(1S,3S)-2,2-Dimethyl-3-(5-phenyl-1,3-oxazol-2-yl)cyclopropyl]pyridine-2-sulfonamide]
720 nM	500 to 5000 nM	CC1(C)[C@H](c2ccc(S(N)(=O)=O)nc2)[C@H]1c1ncc(C2CCCC2)s1 [Example 9, 5-[(1R,3R)-3-(5-Cyclopentyl-1,3-thiazol-2-yl)-2,2-dimethylcyclopropyl]pyridine-2-sulfonamide]
480 nM	100 to 500 nM	CC1(C)[C@@H](c2ccc(S(N)(=O)=O)cn2)[C@@H]1c1nc(C2CCCCC2)no1 [Example 10, 6-[(1S,3S)-3-(3-Cyclohexyl-1,2,4-oxadiazol-5-yl)-2,2-dimethylcyclopropyl]pyridine-3-sulfonamide]
1500 nM	500 to 5000 nM	CC1(C)[C@H](c2ccc(S(N)(=O)=O)nc2)[C@H]1c1nc(-c2ccccc2)no1 [Example A1, 5-[(1R,3R)-2,2-Dimethyl-3-(3-phenyl-1,2,4-oxadiazol-5-yl)cyclopropyl]pyridine-2-sulfonamide]
1400 nM	500 to 5000 nM	CC1(C)[C@H](c2ccc(S(N)(=O)=O)nc2)[C@H]1c1nc(-c2cncc(C(F)(F)F)c2)no1 [Example A2, 5-[(1R,3R)-2,2-Dimethyl-3-{3-[5-(trifluoromethyl)pyridin-3-yl]-1,2,4-oxadiazol-5-yl}cyclopropyl]pyridine-2-sulfonamide]
2900 nM	500 to 5000 nM	CC1(C)[C@H](c2ccc(S(N)(=O)=O)nc2)[C@H]1c1nc(C2CCCC2)no1 [Example A3, 5-[(1R,3R)-3-(3-Cyclopentyl-1,2,4-oxadiazol-5-yl)-2,2-dimethylcyclopropyl]pyridine-2-sulfonamide]
3200 nM	500 to 5000 nM	CC1(C)[C@H](c2ccc(S(N)(=O)=O)nc2)[C@H]1c1ncc(C2CCCC2)o1 [Example A4, 5-[(1R,3R)-3-(5-Cyclopentyl-1,3-oxazol-2-yl)-2,2-dimethylcyclopropyl]pyridine-2-sulfonamide]
1500 nM	500 to 5000 nM	COc1ccc(Cl)cc1-c1noc([C@@H]2[C@@H](c3ccc(S(N)(=O)=O)nc3)C2(C)C)n1 [Example A6, 5-{(1R,3R)-3-[3-(5-Chloro-2-methoxyphenyl)-1,2,4-oxadiazol-5-yl]-2,2-dimethylcyclopropyl}pyridine-2-sulfonamide]
650 nM	500 to 5000 nM	CC1(C)[C@H](c2ccc(S(N)(=O)=O)nc2)[C@H]1c1nc(-c2cccc(F)c2)no1 [Example A7, 5-{(1R,3R)-3-[3-(3-Fluorophenyl)-1,2,4-oxadiazol-5-yl]-2,2-dimethylcyclopropyl}pyridine-2-sulfonamide]
	500 to 5000 nM	CC1(C)[C@H](c2ccc(S(N)(=O)=O)nc2)[C@H]1c1nc(-c2ccc(F)cc2F)no1 [Example A8, 5-{(1R,3R)-3-[3-(2,4-Difluorophenyl)-1,2,4-oxadiazol-5-yl]-2,2-dimethylcyclopropyl}pyridine-2-sulfonamide]
5000 nM	500 to 5000 nM	CC1(C)[C@H](c2ccc(S(N)(=O)=O)nc2)[C@H]1c1nc(-c2cncc(F)c2)no1 [Example A9, 5-{(1R,3R)-3-[3-(5-Fluoropyridin-3-yl)-1,2,4-oxadiazol-5-yl]-2,2-dimethylcyclopropyl}pyridine-2-sulfonamide]

SMILES	EC50 (read-out: α7 nAChR EC50)	EC50 (read-out: α7 nAChR Potency)
CC1(C)[C@@H](c2ccc(S(N)(=O)=O)nc2)[C@@H]1c1nc2ccccc2o1 (relative stereo) [Example C7, 5-[trans-3-(1,3-Benzoxazol-2-yl)-2,2-dimethylcyclopropyl]pyridine-2-sulfonamide]	1600 nM	500 to 5000 nM
